Measured values published in ChEMBL document CHEMBL5365421, “Design, synthesis, antitumor activity, and molecular dynamics simulations of novel sphingosine kinase 2 inhibitors” (Bioorg Med Chem, 2023).

Assays:
[1] = target: T1, Sphingosine kinase 2 (Homo sapiens, UniProt Q9NRA0); test: Inhibition of SphK2 (unknown origin) using NBD-Sph as substrate by fluorescent plate reader analysis
T1 sequence (Q9NRA0 whole entry): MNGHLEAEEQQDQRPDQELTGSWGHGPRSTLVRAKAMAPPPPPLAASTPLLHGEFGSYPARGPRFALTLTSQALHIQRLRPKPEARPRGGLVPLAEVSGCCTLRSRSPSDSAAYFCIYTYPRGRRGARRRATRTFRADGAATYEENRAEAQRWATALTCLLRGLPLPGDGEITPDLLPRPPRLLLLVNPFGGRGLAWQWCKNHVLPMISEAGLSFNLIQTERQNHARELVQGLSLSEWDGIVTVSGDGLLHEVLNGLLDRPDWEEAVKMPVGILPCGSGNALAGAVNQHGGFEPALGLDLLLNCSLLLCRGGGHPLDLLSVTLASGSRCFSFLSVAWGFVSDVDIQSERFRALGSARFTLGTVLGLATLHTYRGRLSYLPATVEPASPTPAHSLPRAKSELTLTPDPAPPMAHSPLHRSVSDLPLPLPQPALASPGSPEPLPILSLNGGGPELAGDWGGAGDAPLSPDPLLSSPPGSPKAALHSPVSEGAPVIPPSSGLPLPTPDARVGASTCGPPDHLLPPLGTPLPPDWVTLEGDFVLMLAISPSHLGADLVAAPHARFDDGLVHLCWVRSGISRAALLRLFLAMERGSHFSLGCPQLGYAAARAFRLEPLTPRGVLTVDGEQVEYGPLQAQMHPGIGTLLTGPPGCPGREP

[2] = tested on: U-937; test: Antiproliferative activity against human U-937 cells assessed as cell growth inhibition measured after 48 hrs by MTT assay; format: functional, cell-based; conditions: U-937, 48 h
[3] = tested on: MCF7; test: Antiproliferative activity against human MCF7 cells assessed as cell growth inhibition measured after 48 hrs by MTT assay; format: functional, cell-based; conditions: MCF7, 48 h
[4] = tested on: MGC-803; test: Antiproliferative activity against human MGC-803 cells assessed as cell growth inhibition measured after 48 hrs by MTT assay; format: functional, cell-based; conditions: MGC-803, 48 h
[5] = target: Sphingosine kinase 1 (Homo sapiens, UniProt Q9NYA1); test: Inhibition of SphK1 (unknown origin) using D-Sph as substrate incubated for 40 mins by ADP-Glo Plus luminescence kinase assay
Chain of Sphingosine kinase 1 (Q9NYA1 whole entry): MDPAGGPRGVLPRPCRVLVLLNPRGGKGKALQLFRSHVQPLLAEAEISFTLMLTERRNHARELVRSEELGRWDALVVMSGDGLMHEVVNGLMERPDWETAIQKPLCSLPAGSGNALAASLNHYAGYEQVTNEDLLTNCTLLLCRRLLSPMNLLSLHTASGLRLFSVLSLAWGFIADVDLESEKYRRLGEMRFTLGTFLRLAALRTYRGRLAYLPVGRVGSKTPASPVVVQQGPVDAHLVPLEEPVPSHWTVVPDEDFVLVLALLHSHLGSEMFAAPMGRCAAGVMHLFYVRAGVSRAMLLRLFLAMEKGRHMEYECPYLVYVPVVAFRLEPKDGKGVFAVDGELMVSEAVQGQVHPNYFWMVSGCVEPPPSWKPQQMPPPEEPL

[6] = target: T2, Sphingosine kinase 2 (Homo sapiens) (UniProt Q9NRA0); test: Inhibition of SphK2 (unknown origin) using NBD-Sph as substrate at 10 uM by fluorescent plate reader analysis relative to control
T2 sequence (whole entry): T1 sequence (Q9NRA0 whole entry)

[7] = tested on: MCF7; test: Inhibition of cell migration in human MCF7 cells assessed as reduction in scratch healing rate measured after 24 to 48 hrs by microscopic analysis; format: functional, cell-based; conditions: dose 20-100 µM, time lower 24.0 hrs, time upper […]
[8] = target: T1, Sphingosine kinase 2; test: Inhibition of recombinant SphK2 (unknown origin) using sphingosine as substrate assessed as inhibition constant by Lineweaver-burk plot analysis

| IC50 [1] [µM] | IC50 [2] [µM] | IC50 [3] [µM] | IC50 [4] [µM] | IC50 [5] [µM] | inhibition [6] [%] | Ki [8] [µM] | Structure (SMILES) | inhibition [7] |
| --- | --- | --- | --- | --- | --- | --- | --- | --- |
| > 10 | 32.9 | 39.6 | 40.8 |  |  |  | NCCNC(=O)c1ccc(OCc2noc(-c3ccc(C(F)(F)F)cc3)n2)cc1 |  |
| > 10 | 41.5 | 18.3 | 65.2 | 0.924 |  |  | NC(=O)[C@H]1CCCN1Cc1ccc(COc2cccc(OCc3ccccc3)c2)cc1 |  |
| 2.46 | 29.4 | 51.9 | 43 |  |  |  | O=C(c1ccc(OCc2noc(-c3ccc(C(F)(F)F)cc3)n2)cc1)N1CCC[C@H]1CO |  |
| 0.0358 | 68.9 | 58 | 26.1 |  |  |  | O=C(NCCO)c1ccc(OCc2noc(-c3ccc(C(F)(F)F)cc3)n2)cc1 |  |
| 0.0416 | 51.4 | 53.5 | 25.1 |  |  |  | NCCNC(=O)c1ccc(COc2cccc(OCc3ccccc3)c2)cc1 |  |
| > 10 | 17.3 | 8.61 | 22.9 | 8.96 | < 50 |  | O=C(c1ccc(OCc2noc(-c3ccc(Cl)cc3)n2)cc1)N1CCC[C@H]1CO |  |
| > 10 | 10 | 55.4 | 29.8 |  | < 50 |  | NC(=O)CNC(=O)c1ccc(OCc2noc(-c3ccc(Cl)cc3)n2)cc1 |  |
| > 10 | 31.4 | 54 | 42 | 1.47 | < 50 |  | NCCNC(=O)c1ccc(OCc2noc(-c3ccc(Cl)cc3)n2)cc1 |  |
| 0.00343 | 51.1 | 21.1 | 35.9 | 17.7 |  |  | O=C(c1ccc(OCc2noc(-c3ccc(C(F)(F)F)cc3)n2)cc1)N1CCC[C@@H]1CO | Dose-Dependent Effect |
| > 10 | > 100 | > 100 | 38.6 | 66.2 |  |  | NC(=O)[C@@H]1CCCN1C(=O)c1ccc(COc2cccc(OCc3ccccc3)c2)cc1 |  |
| 1.23 | 69.5 | 30.5 | 61.8 |  |  |  | O=C(c1ccc(COc2cccc(OCc3ccccc3)c2)cc1)N1CCC[C@@H]1CO |  |
| > 10 | 47.8 | 7.63 | 20.2 |  | < 50 |  | NC(=O)[C@H]1CCCN1C(=O)c1ccc(OCc2noc(-c3ccc(Cl)cc3)n2)cc1 |  |
| > 10 | 31.2 | > 100 | 40.6 |  | < 50 |  | NC(=O)[C@@H]1CCCN1C(=O)c1ccc(OCc2noc(-c3ccc(Cl)cc3)n2)cc1 |  |
| 1.25 | 34.7 | 34.7 | 37.7 | 35.6 |  |  | O=C(NCCO)c1ccc(COc2cccc(OCc3ccccc3)c2)cc1 |  |
| 0.0024 | 25.6 | 24.4 | 19.2 | 21.9 |  |  | NC(=O)[C@H]1CCCN1C(=O)c1ccc(OCc2noc(-c3ccc(C(F)(F)F)cc3)n2)cc1 | Dose-Dependent Effect |
| 0.96 | 45.6 | > 100 | > 81.5 |  |  |  | NC(=O)[C@H]1CCCN1C(=O)c1ccc(COc2cccc(OCc3ccccc3)c2)cc1 |  |
| > 10 | 25.6 | 12.8 | 22.9 |  |  |  | NC(=O)[C@@H]1CCCN1C(=O)c1ccc(OCc2noc(-c3ccc(C(F)(F)F)cc3)n2)cc1 |  |
| > 10 | 20.1 | 55.2 | 37 |  | < 50 |  | O=C(NCCO)c1ccc(OCc2noc(-c3ccc(Cl)cc3)n2)cc1 |  |
| 0.0115 | 32.7 | 20.3 | 33.8 |  |  |  | NC(=O)CNC(=O)c1ccc(COc2cccc(OCc3ccccc3)c2)cc1 |  |
| 4 |  |  |  |  |  |  | CCCCCOc1ccc2cc(-c3noc([C@@H]4[C@@H](O)CCN4C(=N)N)n3)ccc2c1 |  |
| > 10 | 2.95 | 45.3 | 40.3 | 7.76 | < 50 |  | O=C(c1ccc(OCc2noc(-c3ccc(Cl)cc3)n2)cc1)N1CCC[C@@H]1CO |  |
| 0.0462 | > 82.3 | 42.7 | 55.3 | 30.4 |  |  | NC(=O)CNCc1ccc(COc2cccc(OCc3ccccc3)c2)cc1 |  |
| > 10 | 29.9 | > 100 | > 79.8 |  | < 50 |  | O=C(c1ccc(COc2cccc(OCc3ccccc3)c2)cc1)N1CCC[C@H]1CO |  |
| 0.00191 | 37.6 | > 100 | 32.2 | 0.917 |  |  | OC[C@@H]1CCCN1Cc1ccc(COc2cccc(OCc3ccccc3)c2)cc1 |  |
|  |  |  |  |  |  | 6.5 | CCCCOc1ccc(CC/C=C2\SC(=O)N(CCN)C2=O)cc1 |  |
| > 10 | 43.3 | 21.5 | 63.6 |  |  |  | NC(=O)[C@@H]1CCCN1Cc1ccc(COc2cccc(OCc3ccccc3)c2)cc1 |  |
| > 10 | 8.44 | 39.7 | 10.9 |  |  |  | NC(=O)CNC(=O)c1ccc(OCc2noc(-c3ccc(C(F)(F)F)cc3)n2)cc1 |  |
| 0.0115 | > 80.2 | > 100 | 15.7 | 0.446 |  |  | OCC1CCCN1Cc1ccc(COc2cccc(OCc3ccccc3)c2)cc1 (single isomer, unassigned) |  |
